Reference: US20230058961A1, “SUBSTITUTED HETEROCYCLICS WITH THERAPEUTIC ACTIVITY IN HIV” (New York Blood Center, Inc., priority 2019, published 2023)

How the values were obtained:
[1] = test system: pseudovirus HIV-1 HXB2; assay: organism not typed; format: cell-based; conditions: anti-HIV-1 activity, single-cycle assay, TZM-bl cells, pseudovirus HIV-1 HXB2, read-out: IC50
[2] = test system: TZM-bl cells; conditions: human, 3 days
Procedure: (§1) The anti-HIV-1 activity was assessed in a single-cycle assay by infecting TZM-bl indicator cells with the pseudovirus HIV-1 HXB2 according to established procedures (F. Curreli, Y. D. Kwon, D. S. Belov, R. R. Ramesh, A. V. Kurkin, A. Altieri, P. D. Kwong, A. K. Debnath, J Med Chem 2017, 60, 3124-3153; which is incorporated herein by reference for all that it teaches about the conduct and interpretation of the assay).
(§2) The cytotoxicity of the small polycyclic molecules in TZM-bl cells was determined by using the colorimetric method CellTiter 96® AQueous One Solution Cell Proliferation Assay (MTS) (Promega) following the manufacturer's instructions. Briefly, TZM-bl cells were platted in a 96-well tissue culture plate at 1×10^4/well and cultured at 37° C. Following overnight incubation, the cells were incubated with 100 μl of the compounds at graded concentrations and cultured for 3 days. The MTS reagent was added to the cells and incubated for 4 h at 37° C. The absorbance was recorded at 490 nm.

[3] = in vitro; conditions: human, CC50
Procedure: as §1, §2

[4] = Human immunodeficiency virus 1, HXB2, TZM-bl

Structure (SMILES)	IC50 [1]	CC50 [2]	IC50 [1, 4]	CC50 at 3 days [3]
Cc1cc(-c2ccc(Cl)cn2)[nH]c1C(=O)NC(CN)c1ncc(CO)s1 (stereo not shown) [Compound 4, N-(2-Amino-1-(5-(hydroxymethyl)thiazol-2-yl)ethyl)-5-(5-chloropyridin-2-yl)-3-methyl-1H-pyrrole-2-carboxamide]	2.4 ± 0.2 µM	95 ± 3.6 µM		
NCC(NC(=O)c1ccc(-c2ccc(C(F)(F)F)cn2)[nH]1)c1ncc(CO)s1 (stereo not shown) [Compound 6, N-(2-Amino-1-(5-(hydroxymethyl)thiazol-2-yl)ethyl)-5-(5-(trifluoromethyl)pyridin-2-yl)-1H-pyrrole-2-carboxamide]	1.2 µM	> 122 µM		
CC(C)(N)C(NC(=O)c1ccc(-c2ccc(C(F)(F)F)cn2)[nH]1)c1ncc(CO)s1 (stereo not shown) [Compound 10, N-(2-Amino-1-(5-(hydroxymethyl)thiazol-2-yl)-2-methylpropyl)-5-(5-(trifluoromethyl)pyridin-2-yl)-1H-pyrrole-2-carboxamide]	0.5 µM	41 ± 2.5 µM		
Cc1cc(-c2ccc(C(F)(F)F)cn2)[nH]c1C(=O)NC(c1ncc(CO)s1)C(C)(C)N (stereo not shown) [Compound 12, N-(2-Amino-1-(5-(hydroxymethyl)thiazol-2-yl)-2-methylpropyl)-3-methyl-5-(5-(trifluoro-methyl)pyridin-2-yl)-1H-pyrrole-2-carboxamide]		37.5 ± 2.2 µM		
NCC(NC(=O)c1ccc(-c2ccc(C(F)(F)F)cn2)[nH]1)c1ncc(C(O)CO)s1 (stereo not shown) [Compound 14, N-(2-Amino-1-(5-(1,2-dihydroxyethyl)thiazol-2-yl)ethyl)-5-(5-(trifluoromethyl)pyridin-2-yl)-1H-pyrrole-2-carboxamide]	5.9 ± 0.6 µM	> 113 µM		
NCC(NC(=O)c1ccc(-c2ccc(Cl)cn2)[nH]1)c1nc(CO)cs1 (stereo not shown) [Compound 16, N-(2-Amino-1-(4-(hydroxymethyl)thiazol-2-yl)ethyl)-5-(5-chloropyridin-2-yl)-1H-pyrrole-2-carboxamide]	1.7 ± 0.3 µM	> 132 µM		
NCC(NC(=O)c1ccc(-c2ccc(F)cn2)[nH]1)c1nc(CO)cs1 (stereo not shown) [Compound 18, N-(2-Amino-1-(4-(hydroxymethyl)thiazol-2-yl)ethyl)-5-(5-fluoropyridin-2-yl)-1H-pyrrole-2-carboxamide]	> 11 µM	> 138 µM		
Cc1ccc(-c2ccc(C(=O)NC(CN)c3nc(CO)cs3)[nH]2)nc1 (stereo not shown) [Compound 20, N-(2-Amino-1-(4-(hydroxymethyl)thiazol-2-yl)ethyl)-5-(5-methylpyridin-2-yl)-1H-pyrrole-2-carboxamide]	> 11 µM	> 140 µM	> 10 µM	
NCC(NC(=O)c1ccc(-c2ccc(C(F)(F)F)cn2)[nH]1)c1nc(CO)cs1 (stereo not shown) [Compound 22, N-(2-Amino-1-(4-(hydroxymethyl)thiazol-2-yl)ethyl)-5-(5-(trifluoromethyl)pyridin-2-yl)-1H-pyrrole-2-carboxamide]		124 ± 7 µM		
CC(C)(N)C(NC(=O)c1ccc(-c2ccc(C(F)(F)F)cn2)[nH]1)c1nc(CO)cs1 (stereo not shown) [Compound 24, N-(2-Amino-1-(4-(hydroxymethyl)thiazol-2-yl)-2-methylpropyl)-5-(5-(trifluoromethyl)pyridin-2-yl)-1H-pyrrole-2-carboxamide]	0.58 µM	59 ± 10 µM		
NCC(NC(=O)c1ccc(-c2ccc(C(F)(F)F)cn2)[nH]1)c1nc(CCO)cs1 (stereo not shown) [Compound 26, N-(2-Amino-1-(4-(2-hydroxyethyl)thiazol-2-yl)ethyl)-5-(5-(trifluoromethyl)pyridin-2-yl)-1H-pyrrole-2-carboxamide]	0.76 µM	91 ± 3.6 µM		
NCC(NC(=O)c1ccc(-c2ccc(C(F)(F)F)cn2)[nH]1)c1nc(CCCO)cs1 (stereo not shown) [Compound 28, N-(2-Amino-1-(4-(3-hydroxypropyl)thiazol-2-yl)ethyl)-5-(5-(trifluoromethyl)pyridin-2-yl)-1H-pyrrole-2-carboxamide]	0.89 ± 0.12 µM	81.2 ± 1.3 µM		
NCC(NC(=O)c1ccc(-c2ccc(C(F)(F)F)cn2)[nH]1)c1nc(C(O)CO)cs1 (stereo not shown) [Compound 30, N-(2-Amino-1-(4-(1,2-dihydroxyethyl)thiazol-2-yl)ethyl)-5-(5-(trifluoromethyl)pyridin-2-yl)-1H-pyrrole-2-carboxamide]	3.8 ± 0.2 µM	> 113 µM		
NCC(NC(=O)c1ccc(-c2ccc(C(F)(F)F)cn2)[nH]1)c1nc(CO)c(CO)s1 (stereo not shown) [Compound 36, N-(2-Amino-1-(4,5-bis(hydroxymethyl)thiazol-2-yl)ethyl)-5-(5-(trifluoromethyl)pyridin-2-yl)-1H-pyrrole-2-carboxamide]	13 µM	> 113 µM		
NCC(NC(=O)c1ccc(-c2ccc(C(F)(F)F)cn2)[nH]1)c1nccs1 (stereo not shown) [Compound 38, N-(2-Amino-1-(thiazol-2-yl)ethyl)-5-(5-(trifluoromethyl)pyridin-2-yl)-1H-pyrrole-2-carboxamide]	1.2 ± 0.03 µM	93.6 ± 1.5 µM		
NCC(NC(=O)c1ccc(-c2ccc(Cl)nc2)[nH]1)c1nc(CO)cs1 (stereo not shown) [Compound 40, N-(2-Amino-1-(4-(hydroxymethyl)thiazol-2-yl)ethyl)-5-(6-chloropyridin-3-yl)-1H-pyrrole-2-carboxamide]	> 11 µM	> 132 µM		

Structure (SMILES)	IC50 [1]	CC50 [2]	IC50 [1, 4]	CC50 at 3 days [3]
NCC(NC(=O)c1ccc(-c2ccc(C(F)(F)F)nc2)[nH]1)c1nc(CO)cs1 (stereo not shown) [Compound 42, N-(2-Amino-1-(4-(hydroxymethyl)thiazol-2-yl)ethyl)-5-(6-(trifluoromethyl)pyridin-3-yl)-1H-pyrrole-2-carboxamide]	11.9 ± 1.9 µM	> 122 µM		
NCC(NC(=O)c1ccc(-c2ccc(C(F)(F)F)nn2)[nH]1)c1nc(CO)cs1 (stereo not shown) [Compound 43, N-(2-Amino-1-(4-(hydroxymethyl)thiazol-2-yl)ethyl)-5-(6-(trifluoromethyl)pyridazin-3-yl)-1H-pyrrole-2-carboxamide]	> 12 µM		> 10 µM	> 73 µM
NCC(NC(=O)c1ccc(-c2ccc(C(F)(F)F)nn2)[nH]1)c1nc(CO)cs1 (stereo not shown) [Compound 44, N-(2-Amino-1-(4-(hydroxymethyl)thiazol-2-yl)ethyl)-5-(6-(trifluoromethyl)pyridazin-3-yl)-1H-pyrrole-2-carboxamide]	> 12 µM	> 73 µM		
NCC(NC(=O)c1ccc(-c2ncc(Cl)cn2)[nH]1)c1nc(CO)cs1 (stereo not shown) [Compound 45, N-(2-Amino-1-(4-(hydroxymethyl)thiazol-2-yl)ethyl)-5-(5-chloropyrimidin-2-yl)-1H-pyrrole-2-carboxamide]	> 15.8 µM		> 10 µM	> 66 µM
NCC(NC(=O)c1ccc(-c2ncc(Cl)cn2)[nH]1)c1nc(CO)cs1 (stereo not shown) [Compound 46, N-(2-Amino-1-(4-(hydroxymethyl)thiazol-2-yl)ethyl)-5-(5-chloropyrimidin-2-yl)-1H-pyrrole-2-carboxamide]	> 15.8 µM	> 66 µM		
COc1cc(-c2ccc(C(=O)NC(CN)c3nc(CO)cs3)[nH]2)ccn1 (stereo not shown) [Compound 47, N-(2-Amino-1-(4-(hydroxymethyl)thiazol-2-yl)ethyl)-5-(2-methoxypyridin-4-yl)-1H-pyrrole-2-carboxamide]	> 11 µM		> 10 µM	> 133 µM
COc1cc(-c2ccc(C(=O)NC(CN)c3nc(CO)cs3)[nH]2)ccn1 (stereo not shown) [Compound 48, N-(2-Amino-1-(4-(hydroxymethyl)thiazol-2-yl)ethyl)-5-(2-methoxypyridin-4-yl)-1H-pyrrole-2-carboxamide]	> 11 µM	> 133 µM		
NCC(NC(=O)c1ccc(-c2ccc(C(F)(F)F)cn2)[nH]1)c1cnc(CO)s1 (stereo not shown) [Compound 57, N-(2-Amino-1-(2-(hydroxymethyl)thiazol-5-yl)ethyl)-5-(5-(trifluoromethyl)pyridin-2-yl)-1H-pyrrole-2-carboxamide]			2.1 ± 0.4 µM	> 122 µM
NCC(NC(=O)c1ccc(-c2ccc(C(F)(F)F)cn2)[nH]1)c1cnc(CO)s1 (stereo not shown) [Compound 58, N-(2-Amino-1-(2-(hydroxymethyl)thiazol-5-yl)ethyl)-5-(5-(trifluoromethyl)pyridin-2-yl)-1H-pyrrole-2-carboxamide]	2.1 ± 0.2 µM	> 122 µM		
NCC(NC(=O)c1ccc(-c2ccc(Cl)cn2)[nH]1)c1cnc(CO)s1 (stereo not shown) [Compound 59, N-(2-Amino-1-(2-(hydroxymethyl)thiazol-5-yl)ethyl)-5-(5-chloropyridin-2-yl)-1H-pyrrole-2-carboxamide]	~26 µM			> 106 µM
NCC(NC(=O)c1ccc(-c2ccc(Cl)cn2)[nH]1)c1cnc(CO)s1 (stereo not shown) [Compound 60, N-(2-Amino-1-(2-(hydroxymethyl)thiazol-5-yl)ethyl)-5-(5-chloropyridin-2-yl)-1H-pyrrole-2-carboxamide]	3.6 ± 0.4 µM	> 106 µM		
Cc1cc(-c2ccc(C(F)(F)F)cn2)[nH]c1C(=O)NC(CN)c1cnc(CO)s1 (stereo not shown) [Compound 61, N-(2-Amino-1-(2-(hydroxymethyl)thiazol-5-yl)ethyl)-3-methyl-5-(5-(trifluoromethyl)pyridin-2-yl)-1H-pyrrole-2-carboxamide]			2.3 ± 1 µM	65 ± 4.9 µM
Cc1cc(-c2ccc(C(F)(F)F)cn2)[nH]c1C(=O)NC(CN)c1csc(CO)n1 (stereo not shown) [Compound 63, N-(2-Amino-1-(2-(hydroxymethyl)thiazol-4-yl)ethyl)-3-methyl-5-(5-(trifluoromethyl)pyridin-2-yl)-1H-pyrrole-2-carboxamide]			1.4 ± 0.1 µM	42.3 ± 0.2 µM
NCC(NC(=O)c1ccc(-c2ccc(C(F)(F)F)cn2)[nH]1)c1csc(CO)n1 (stereo not shown) [Compound 65, N-(2-Amino-1-(2-(hydroxymethyl)thiazol-4-yl)ethyl)-5-(5-(trifluoromethyl)pyridin-2-yl)-1H-pyrrole-2-carboxamide]			1.6 ± 0.2 µM	84.3 ± 1.4 µM
NCC(NC(=O)c1ccc(-c2ccc(C(F)(F)F)cn2)[nH]1)c1csc(C(=O)NCCO)n1 (stereo not shown) [Compound 69, 4-(2-Amino-1-(5-(5-(trifluoromethyl)pyridin-2-yl)-1H-pyrrole-2-carboxamido)ethyl)-N-(2-hydroxyethyl)thiazole-2-carboxamide]			> 21.3 µM	> 107 µM
